According to patent publication US20230203440A1, “AXIAL STEM CELLS, METHODS OF PRODUCING AND USES THEREOF” (HELMHOLTZ ZENTRUM MUNCHEN - DEUTSCHES FORSCHUNGSZENTRUM FUR …, priority 2020, published 2023):

How the values were obtained:
[1] = tested on: human iPSC line HMGU #1; assay: Axial stem cell derivation from human iPS cell line; format: cell-based; details: 10 μM CHIR99021 with inhibition of TGF-β, human iPSCs
Description: FIG. 6: A) Schematic of axial stem cell derivation from human iPS cell line (HMGU #1). μM concentrations refer to CHIR99021. […] B) Quantitative qPCR analysis of marker gene expression in iPS-derived axial stem cell lines at passage 9. Expression is normalized to GAPDH and plotted as log2 fold change over undifferentiated parental iPS cell line. Error bars represent standard error of the mean between biological replicates (derivations). n=1 to 6. Cells were seeded as described above and treated with 10 μM CHIR for 24 hours. Afterwards cells were split at 1:20-1:30 ratio into Matrigel-coated 6-well plates containing maintenance medium (RPMI-1640 supplemented with L-Glutamine, 1× non-essential amino acids, 1× B-27 supplement without vitamin A and the respective ligands (see Table 1) and the cultures were incubated until they became confluent. Confluent cultures were routinely split at 1:10-1:20 ratio until the end of establishment phase defined at passage 9. Splitting was done with either Passaging solution XF or Versene (Life Technologies). FGF2-containing medium was prepared freshly every week, the media without FGF2—at least every 2 weeks. No manual colony picking or scraping off the differentiated cells was employed at any stage during the establishment of cell lines.

[2] = tested on: hESCs; assay: Continuous CHIR99021 treatment of hESCs (time course, qPCR and RNA-seq); format: cell-based, human; details: continuous 10 μM treatment of hESCs, compared to transient activation for 24 hours
Description: In time course experiments cells were dissociated using Accutase (Sigma) and seeded into 12-well plates at 2.5×10^5 cells per well in mTesR1 medium supplemented with 10 μM Y-27632 (R&D). 24 hours later medium was replaced with differentiation medium: RPMI-1640 with L-Glutamine and 1× B-27 supplement without insulin containing 10 μM CHIR99021 (Tocris). In case of beta-catenin overexpression, the procedure was the same, except that CHIR99021 was replaced with 1 μg/ml doxycycline (Clontech). All cell culture media components were from Life Technologies unless indicated otherwise.
Total RNA was isolated using RNeasy mini kit (Qiagen). cDNA was synthesized from 0.2-1 μg of total RNA (normalized amount between samples within each experiment) using Verso cDNA synthesis kit (Thermo Scientific) according to manufacturers instructions. […] Relative fold changes (FC) in gene expression were calculated using ΔΔCt method (Livak and Schmittgen, 2001). […]
3 μg of total RNA were treated with TURBO DNase (Life Technologies) and purified using RNeasy Minelute RNA cleanup kit (Qiagen). RNA quality was assessed using microcapillary electrophoresis on Agilent 2100 Bioanalyzer with RNA Pico 6000 kit (Agilent) and only RNA with RIN values >8 was processed further. […] The quality of the libraries was assessed using Agilent 2100 Bioanalyzer with the DNA 1000 kit (Agilent). […] Sequencing depth was 12-14 Mio reads per sample. […]

[3] = tested on: H9 hESC line; assay: Axial stem cell derivation from hESCs by serial passaging in maintenance medium with ligands; format: cell-based, human; details: for derivation of stable lines on addition of the ligand: added to maintenance medium
Description: Cells were seeded as described above and treated with 10 μM CHIR for 24 hours. Afterwards cells were split at 1:20-1:30 ratio into Matrigel-coated 6-well plates containing maintenance medium (RPMI-1640 supplemented with L-Glutamine, 1× non-essential amino acids, 1× B-27 supplement without vitamin A and the respective ligands (see Table 1) and the cultures were incubated until they became confluent. Confluent cultures were routinely split at 1:10-1:20 ratio until the end of establishment phase defined at passage 9. Splitting was done with either Passaging solution XF or Versene (Life Technologies). FGF2-containing medium was prepared freshly every week, the media without FGF2—at least every 2 weeks. No manual colony picking or scraping off the differentiated cells was employed at any stage during the establishment of cell lines.
Total RNA was isolated using RNeasy mini kit (Qiagen). cDNA was synthesized from 0.2-1 μg of total RNA (normalized amount between samples within each experiment) using Verso cDNA synthesis kit (Thermo Scientific) according to manufacturers instructions. 1 μl of cDNA (1:5 dilutions) were used as template in 10 μl qPCR reactions. PCR was set up using either pre-designed Taqman Gene Expression Assays together with Taqman Gene Expression Master Mix (both from Thermo Scientific) or custom-designed primers together with Power SYBR Green master mix (Thermo Scientific). All primer and Taqman probe details are listed in, e.g., Table 2. Primer concentration in the reactions was 250 nM for all primers. PCR was performed on QuantStudio 12K Flex Real-Time PCR System (Thermo Scientific) using pre-defined cycling parameters. 2 technical replicates were run for each reaction. Taqman assays and primers used are listed in, e.g., Table 2. GAPDH served as a housekeeping gene in all experiments. Relative fold changes (FC) in gene expression were calculated using ΔΔCt method (Livak and Schmittgen, 2001). Results are presented as mean ΔΔCt±standard error of the mean between biological replicates, unless indicated otherwise. Plots were produced using ggplot2 package (Wickham, 2009) in RStudio software running R version 3.5.1 (R Core Team, 2018).
For immunofluorescent analysis, cells were seeded onto either matrigel-coated glass coverslips or into matrigel-coated 4-well μ-slides (Ibidi). For IF on differentiated motor neurons, AxCS lines were differentiated directly on the coverslips. […] Primary antibody dilutions (e.g., Table 3) in the blocking buffer were added and incubated overnight at 4° C. Next day, cells were washed with PBS 3 times and incubated with secondary antibodies diluted in PBS for 1 hours at RT. Coverslips were mounted using ProLong Gold mounting reagent with DAPI. Images were obtained at 63× magnification using Zeiss Axio Observer.Z1 epifluorescent microscope equipped with Apotome.2 and Zen software (Zeiss).

Molecule: Cc1c[nH]c(-c2cnc(NCCNc3ccc(C#N)cn3)nc2-c2ccc(Cl)cc2Cl)n1 [CHIR99021]
- derivation of axial cell lines [1]: permissive for the derivation of SOX2/TXBT axial cell lines
- TBXT expression [2]: sustained high level of TBXT
- marker expression of derived cell lines ([3]; 5 μM CHIR99021 alone): high levels of SOX2 in conjunction with PAX6, but no T, CDX2, MIXL1 or EOMES
- marker expression of derived cell lines ([3]; 5 μM CHIR99021 with FGF2): high levels of SOX2, TBXT, CDX2, MIXL1, EOMES and very low level or no PAX6
- marker expression of derived cell lines ([3]; 7.5 μM CHIR99021): intermediate levels of TXBT and PAX6
- toxicity to conversion ([3]; 10 μM CHIR99021, hESC): toxic to hESC conversion
- derivation of cell lines ([3]; 5 or 7.5 μM CHIR99021, presence or absence of FGF2, hESCs): enabled the derivation of lines that exhibited compact stem cell colony morphology
- derivation of cell lines ([3]; CHIR99021 lower than 5 μM): did not promote the formation of cell lines
- SOX2 expression of passaged progeny ([3]; passaging beginning at 24 hours, in presence of CHIR99021): stably expressing SOX2 at a comparable level to undifferentiated hESCs

Molecule: NC(=O)c1ccc(-c2nc(-c3ccc4c(c3)OCO4)c(-c3ccccn3)[nH]2)cc1 [SB-431542]
- spontaneous differentiation and colony compactness of the stem cell lines ([3]; TGF-β inhibition): reduced spontaneous differentiation and maintained the lines as more compact colonies
- cell and colony morphology of derived lines ([3]; TGF-β inhibitor applied to maintenance medium): created more compact cells and denser colonies

Molecule: FGF2
- sustained TBXT expression on passaging ([3]; passaging in presence of CHIR99021 with or without FGF2): sustained expression required the presence of FGF2

Molecule: TGF-β: Human recombinant TGF-β1 (Peprotech)
- derivation of stable lines on addition of the ligand [3]: prohibited the deviation of stable lines altogether

B1: BMP4: Human recombinant BMP4 (R&D Systems) (protein, UniProt P12644 293-408, looked up)
Bone morphogenetic protein 4: SPKHHSQRARKKNKNCRRHSLYVDFSDVGWNDWIVAPPGYQAFYCHGDCPFPLADHLNSTNHAIVQTLVNSVNSSIPKACCVPTELSAISMLYLDEYDKVVLKNYQEMVVEGCGCR
- derivation of stable lines on addition of the ligand [3]: prohibited the deviation of stable lines altogether
